The results in this text go back to US20230247994A1, “HETEROCYCLENE DERIVATIVES AS PEST CONTROL AGENTS” (Bayer Aktiengesellschaft, priority 2020, published 2023).

What all share (format): in vivo
In one assay the test system is Spodoptera frugiperda. The experiment in a line: Spodoptera frugiperda spray test (maize leaf disks). The settings on record: foliar, 168 h, caterpillars, after 7 days, 100% = all caterpillars killed, read-out: efficacy in %; for pest or weed control at 100 g/ha: application rate 100 g/ha. The text has this:
Spodoptera frugiuerda—Spray Test
Solvent: 78.0 parts by weight of acetone • • 1.5 parts by weight of dimethylformamide
Emulsifier: alkylaryl polyglycol ether
An appropriate active ingredient formulation is produced by dissolving 1 part by weight of active ingredient with the stated parts by weight of solvent and making the solution up to the desired concentration with water containing an emulsifier concentration of 1000 ppm. Further test concentrations are produced by diluting the formulation with emulsifier-containing water.
Leaf disks of maize (Zea mays) are sprayed with an active ingredient formulation of the desired concentration and, after drying, populated with caterpillars of the fall armyworm (Spodopterafrugiperda).
After 7 days, efficacy in % is determined. 100% means that all of the caterpillars have been killed; 0% means that none of the caterpillars have been killed.

The test system of assay [1] is Myzus persicae. As to the kind of experiment: Myzus persicae spray test (Chinese cabbage leaf disks). The settings on record: application rate 100 g/ha, after 5 days, 100% = all aphids killed. The text has this:
(§1) Myzus persicae—Spray Test Solvent: 78 parts by weight of acetone • • 1.5 parts by weight of dimethylformamide Emulsifier: alkylaryl polyglycol ether An appropriate active ingredient formulation is produced by dissolving 1 part by weight of active ingredient with the stated parts by weight of solvent and making the solution up to the desired concentration with water containing an emulsifier concentration of 1000 ppm. Further test concentrations are produced by diluting the formulation with emulsifier-containing water. Leaf disks of Chinese cabbage (Brassica pekinensis) infested by all stages of the green peach aphid (Myzus persicae) are sprayed with an active ingredient formulation of the desired concentration. After 5 days, efficacy in % is determined. 100% means that all of the aphids have been killed; 0% means that none of the aphids have been killed.

A further assay relates to Nezara viridula. The experiment in a line: Nezara viridula spray test (barley plants). To be noted: 96 h, application rate 500 g/ha, larvae, after 4 days, 100% = all shield bugs killed, read-out: efficacy in %.
Text: as §1, with “Nezara viridula—Spray Test” for “Myzus persicae—Spray Test”, “Solvent: 78.0” for “Solvent: 78”, “water. Barley plants (Hordeum vulgare)” for “water. Leaf disks of Chinese cabbage (Brassica pekinensis) infested by all stages of the green peach aphid (Myzus persicae)”, “desired concentration and are infected with larvae of the Southern green shield bug (Nezara viridula).” for “desired concentration.”, “After 4” for “After 5”, “the shield bugs” for “the aphids”

For another assay, the system named is Meloidogyne incognita. As to the kind of experiment: Meloidogyne incognita test (lettuce, gall formation). To be noted: application rate 20 ppm, after 14 days, 100% = no galls found. The text has this:
Meloidogyne Incognita Test Solvent: 125.0 parts by weight of acetone An appropriate active ingredient formulation is produced by mixing 1 part by weight of active ingredient with the stated amount of solvent and diluting the concentrate to the desired concentration with water. Vessels are filled with sand, active ingredient solution, an egg/larvae suspension of the southern root-knot nematode (Meloidogyne incognita) and lettuce seeds. The lettuce seeds germinate and the plants develop. The galls develop on the roots. After 14 days, the nematicidal efficacy in % is determined by the formation of galls. 100% means that no galls were found; 0% means that the number of galls on the treated plants corresponds to the untreated control.

For another assay, the system named is Diabrotica balteata. The experiment in a line: Diabrotica balteata spray test (germinated wheat grains). To be noted: 168 h, application rate 100 g/ha (=32 μg/cavity), after 7 days, beetle larvae on wheat, 100% = all wheat plants grown as in untreated, uninfected control, read-out: efficacy in %. An excerpt:
Diabrotica Balteata—Spray Test Solvent: 78 parts by weight of acetone • • 1.5 parts by weight of dimethylformamide Emulsifier: alkylaryl polyglycol ether An appropriate active ingredient formulation is produced by dissolving 1 part by weight of active ingredient with the stated parts by weight of solvent and making the solution up to the desired concentration with water containing an emulsifier concentration of 1000 ppm. Further test concentrations are produced by diluting the formulation with emulsifier-containing water. Pre-swollen wheat grains (Triticum aestivum) are incubated in a multiwell plate filled with agar and a little water for one day (5 seed grains per cavity). The germinated wheat grains are sprayed with an active ingredient formulation of the desired concentration. Subsequently, each cavity is infected with 10-20 beetle larvae of Diabrotica balteata. After 7 days, efficacy in % is determined. 100% means that all wheat plants have grown as in the untreated, uninfected control; 0% means that no wheat plant has grown.

Assay [2] has as its system Myzus persicae. As to the kind of experiment: Myzus persicae oral test. To be noted: application rate 20 ppm, after 5 days, 100% = all aphids killed. The protocol: Myzus persicae—Oral Test Solvent: 100 parts by weight of acetone An appropriate active ingredient formulation is produced by dissolving 1 part by weight of active ingredient with the specified parts by weight of solvent and making the solution up to the desired concentration with water. 50 μl of the active ingredient formulation is transferred into microtiter plates and made up to a final volume of 200 μl with 150 μl of IPL41 insect medium (33%+15% sugar). Subsequently, the plates are sealed with parafilm, which a mixed population of green peach aphids (Myzus persicae) within a second microtiter plate is able to puncture and imbibe the solution. After 5 days, efficacy in % is determined. 100% means that all of the aphids have been killed; 0% means that none of the aphids have been killed.

The test system of a further assay is Nilaparvata lugens. As to the kind of experiment: Nilaparvata lugens test (rice plants). The settings on record: application rate 500 g/ha, spray, after 4 days, 100% = all planthoppers killed. An excerpt: Nilaparvata lugens Test Solvent: 78.0 parts by weight of acetone • • 1.5 parts by weight of dimethylformamide Emulsifier: alkylaryl polyglycol ether An appropriate active ingredient formulation is produced by dissolving 1 part by weight of active ingredient with the stated parts by weight of solvent and making the solution up to the desired concentration with water containing an emulsifier concentration of 1000 ppm. Further test concentrations are produced by diluting the formulation with emulsifier-containing water. Rice plants (Oryza sativa) are sprayed with the active ingredient formulation of the desired concentration and then infected with the brown planthopper (Nilaparvata lugens). After 4 days, efficacy in % is determined. 100% means that all of the planthoppers have been killed; 0% means that none of the planthoppers have been killed.

Molecules are shown by their SMILES.

As to `CCS(=N)(=O)c1c(-c2nc3cc4c(cc3n2C)OC(F)(F)C(F)(F)O4)nc(-c2ccc(F)cc2)n1C` (centres unmarked) [Example I-38], the pest or weed control at 100 g/ha in the assay on Spodoptera frugiperda and with Diabrotica balteata was 100% throughout. The efficacy in % with Myzus persicae [1] was 90%. Besides, in the assay with Nezara viridula, the pest or weed control at 500 g/ha is 90%. For the same compound, the “nematicidal efficacy in % (formation of galls)” value (from here on “nematicidal efficacy in %”) in the assay on Meloidogyne incognita amounted to 100%.

For the compound `CCS(=N)(=O)c1c(-c2nc3cc4c(cc3n2C)OC(F)(F)C(F)(F)O4)nc(-c2ccc(Cl)cc2)n1C` (racemic) [Example I-34, rac-2-[2-(4-Chlorophenyl)-5-(ethylsulfonimidoyl)-1-methyl-1H-imidazol-4-yl]-6,6,7,7-tetrafluoro-1-methyl-6,7-dihydro-1H-[1,4]dioxino[2,3-f]benzimidazole], the pest or weed control at 100 g/ha in the assay with Spodoptera frugiperda and in the assay on Diabrotica balteata was 100% in each case. Besides, in the assay with Myzus persicae [1], the efficacy in % came out at 90%. Besides, the “nematicidal efficacy in %” value in the assay on Meloidogyne incognita was 90%.

Regarding `CCS(=O)(=O)c1c(-c2nc3cc4c(cc3n2C)OC(F)(F)C(F)(F)O4)nc(-c2ccc(C3(C#N)CC3)cc2)n1C` [Example I-6, 1-{4-[5-(Ethylsulfonyl)-1-methyl-4-(6,6,7,7-tetrafluoro-1-methyl-6,7-dihydro-1H-[1,4]dioxino[2,3-f]benzimidazol-2-yl)-1H-imidazol-2-yl]phenyl}cyclopropanecarbonitrile], the pest or weed control at 100 g/ha in the assay with Spodoptera frugiperda and in the assay with Diabrotica balteata was 100% throughout. The pest or weed control at 500 g/ha in the assay with Nezara viridula was determined as 100%. Moreover, the “nematicidal efficacy in %” value in the assay on Meloidogyne incognita came out at 100%.

With `CCS(=O)(=O)c1c(-c2nc3cc4c(cc3[nH]2)OC(F)(F)C(F)(F)O4)nc(C2CC2)n1C` [Example I-8, 2-[2-Cyclopropyl-5-(ethylsulfonyl)-1-methyl-1H-imidazol-4-yl]-6,6,7,7-tetrafluoro-6,7-dihydro-1H-[1,4]dioxino[2,3-f]benzimidazole], the pest or weed control at 500 g/ha in the assay on Spodoptera frugiperda (application rate 500 g/ha) came out at 100%. The same compound returned an efficacy in % in the assay on Myzus persicae [2] of 100%. In addition, the “nematicidal efficacy in %” value with Meloidogyne incognita was determined as 90%. Besides, in the assay on Diabrotica balteata, the pest or weed control at 100 g/ha came out at 100%.

For `CCS(=O)(=O)c1c(-c2nc3cc4c(cc3n2C)OC(F)(F)C(F)(F)O4)nc(-c2ccc(Cl)cc2)n1C` [Example I-4, 2-[2-(4-Chlorophenyl)-5-(ethylsulfonyl)-1-methyl-1H-imidazol-4-yl]-6,6,7,7-tetrafluoro-1-methyl-6,7-dihydro-1H-[1,4]dioxino[2,3-f]benzimidazole], the pest or weed control at 100 g/ha was determined as 100% in the assay on Spodoptera frugiperda and 80% in the assay on Diabrotica balteata. The “nematicidal efficacy in %” value in the assay with Meloidogyne incognita is 90%.

For `CCS(=O)(=O)c1c(-c2nc3cc4c(cc3n2C)OC(F)(F)C(F)(F)O4)nc(-c2ccccc2)n1C` [Example I-16, 2-[5-(Ethylsulfonyl)-1-methyl-2-phenyl-1H-imidazol-4-yl]-6,6,7,7-tetrafluoro-1-methyl-6,7-dihydro-1H-[1,4]dioxino[2,3-f]benzimidazole], the pest or weed control at 100 g/ha in the assay with Spodoptera frugiperda and in the assay with Diabrotica balteata was 100% in each case. In addition, in the assay with Myzus persicae [1], the efficacy in % was 90%. Also, the pest or weed control at 500 g/ha in the assay on Nezara viridula was determined as 100%.

On to `CCS(=O)(=O)c1c(-c2nc3cc4c(cc3n2C)OC(F)(F)C(F)(F)O4)nc(-c2cccc(Cl)n2)n1C` [Example I-21, 2-[2-(6-Chloropyridin-2-yl)-5-(ethylsulfonyl)-1-methyl-1H-imidazol-4-yl]-6,6,7,7-tetrafluoro-1-methyl-6,7-dihydro-1H-[1,4]dioxino[2,3-f]benzimidazole], for which the pest or weed control at 100 g/ha in the assay with Spodoptera frugiperda and in the assay with Diabrotica balteata was 100% each time. In the assay with Nilaparvata lugens, this compound displayed an efficacy in % of 90%. The pest or weed control at 500 g/ha in the assay on Nezara viridula worked out at 100%.

As to `CCS(=O)(=O)c1c(-c2nc3cc4c(cc3n2C)OC(F)(F)C(F)(F)O4)nc(-c2cccc(Br)n2)n1C` [Example I-30, 2-[2-(6-Bromopyridin-2-yl)-5-(ethylsulfonyl)-1-methyl-1H-imidazol-4-yl]-6,6,7,7-tetrafluoro-1-methyl-6,7-dihydro-1H-[1,4]dioxino[2,3-f]benzimidazole], the pest or weed control at 100 g/ha in the assay with Spodoptera frugiperda and with Diabrotica balteata was 100% throughout. Besides, the efficacy in % in the assay on Nilaparvata lugens came out at 100%. Besides, in the assay with Nezara viridula, the pest or weed control at 500 g/ha stood at 100%.

Turning to `CCS(=N)(=O)c1c(-c2nc3cc4c(cc3n2C)OC(F)(F)C(F)(F)O4)nc(-c2ccc(C(F)(F)F)cc2)n1C` (centres unmarked) [Example I-37], the pest or weed control at 100 g/ha in the assay on Spodoptera frugiperda was 100%; in the assay on Diabrotica balteata, 80%. Besides, the “nematicidal efficacy in %” value in the assay on Meloidogyne incognita is 90%.

On to `CCS(=O)(=O)c1c(-c2nc3cc4c(cc3n2C)OC(F)(F)C(F)(F)O4)nc(-c2cccc(C3(C#N)CC3)n2)n1C` [Example I-28, 1-{6-[5-(Ethylsulfonyl)-1-methyl-4-(6,6,7,7-tetrafluoro-1-methyl-6,7-dihydro-1H-[1,4]dioxino[2,3-f]benzimidazol-2-yl)-1H-imidazol-2-yl]pyridin-2-yl}cyclopropanecarbonitrile], for which the pest or weed control at 100 g/ha in the assay on Spodoptera frugiperda was 100%. Also, in the assay with Nilaparvata lugens, the efficacy in % turned out to be 100%. In the assay on Nezara viridula, the pest or weed control at 500 g/ha amounted to 100%.
